Structures can show the parent of a compound that is named as a salt.
System: Gli1 transcript in Daoy cells (Shh signaling)
Experiment: Functional assay for measuring the inhibition of Gli1 in Daoy cells (bDNA assay of Gli1 transcript after Shh-conditioned media stimulation)
Type: cell-based
Conditions: Homo sapiens; Daoy cells stimulated with Shh-CM, 24 hours incubation with compound, Gli1 bDNA luminescence
Procedure: Biological activity is determined using a functional assay in Daoy neuronal cancer cells and measures levels of Gli1 ribonucleic acid via a bDNA (branched deoxyribonucleic acid) assay system (Panomics, Inc., Fremont, Calif.). Gli was originally discovered in a Glioblastoma cell line and encodes a zinc finger protein that is activated by Shh signaling. The maximum response is obtained by inducing Gli1 transcription in the Daoy cells with conditioned medium (human embryonic kidney, HEK-293 cells stably expressing recombinant Shh) for 24 hours and then measuring the amount of stimulated Gli1 transcript. […]
The bDNA assay system utilizes the technology of branched-chain DNA to allow amplification of a target ribonucleic acid (transcript). […] The addition of a chemilumigenic substrate during the amplification step allows for detection using luminescence. […]
Daoy cells are grown to confluency in tissue culture T225-flasks in Daoy growth media containing Minimum Essential Medium (MEM) plus 10% Fetal Bovine Serum (FBS) with […] non-essential amino acids and 1 mM sodium pyruvate. The cells are removed from the T225-flasks using trypsin ethylenediaminetetraacetic acid (EDTA), centrifuged, resuspended in media, and then counted. […]

IC50 [nM] | SMILES
~1.27 | Cc1c(-c2ccc(C#N)cc2)nnc(N2CCC(N(C)C(=O)c3cccnc3C(F)(F)F)CC2)c1C [Example 14, N-(1-(6-(4-Cyanophenyl)-4,5-dimethylpyridazin-3-yl)piperidin-4-yl)-N-methyl-2-(trifluoromethyl)nicotinamide dihydrochloride]
~1.22 | Cc1c(-c2ccc(F)cc2)nnc(N2CCC(N(C)C(=O)[C@@H]3CCCCN3)CC2)c1C [Example 34, (S)-N-(1-(6-(4-Fluorophenyl)-4,5-dimethylpyridazin-3-yl)piperidin-4-yl)-N-methylpiperidine-2-carboxamide dihydrochloride]

Source: US8507490B2, “Tetrasubstituted pyridazine hedgehog pathway antagonists” (Eli Lilly and Company, priority 2008, dated 2013)
